In experiment [1] the test system is mesenchymal cells from the limb buds of murine embryos (chondrocytes). As to the kind of experiment: Organoid model of cartilage formation: mineralisation in the presence of LPS. The format is cell-based. To be noted: concentration of 10 μm; calcium content of extracellular matrix after culturing for 14 days. How it is done: In a further in vitro experiment, the effectiveness of the compounds as regards inflammatory diseases was tested in an organoid model of cartilage formation. For that model, mesenchymal cells from the limb buds of murine embryos were placed in cell culture. In the cell culture, the cells formed an extracellular matrix corresponding to joint cartilage. Mineralisation of the extracellular matrix was induced by addition of β-glycerophosphate. Cartilage formation and mineralisation were inhibited by addition of bacterial lipopolysaccharide (LPS) as inflammation mediator. The effect of the compounds on the LPS-induced impairment of mineralisation was examined by measuring the calcium content of the extracellular matrix by flame photometry after culturing for 14 days.
The values indicate the percentage increase in mineralisation in comparison with the LPS-treated culture.

The target of the next experiment is Stromelysin-1 (MMP-3) (Homo sapiens, UniProt P08254). Kind of experiment: Inhibition of purified stromelysin-1 in vitro. The format is biochemical. How it is done:
(§1) The experiments were carried out in vitro using purified human enzymes. The enzyme substrates used were substrates to be measured by photometry or fluorometry.

For another experiment, the target named is T1, Human elastase (Homo sapiens, UniProt P08246).
T1 sequence (P08246 30-247 limits assumed): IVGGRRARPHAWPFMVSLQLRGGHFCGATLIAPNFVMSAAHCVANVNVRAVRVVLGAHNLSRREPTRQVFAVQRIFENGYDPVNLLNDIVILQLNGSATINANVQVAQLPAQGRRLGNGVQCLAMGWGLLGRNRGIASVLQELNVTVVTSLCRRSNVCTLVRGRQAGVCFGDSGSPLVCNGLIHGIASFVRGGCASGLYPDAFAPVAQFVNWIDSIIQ
As to the kind of experiment: Inhibition of purified human elastase in vitro. The format is biochemical. How it is done: as §1

In experiment [2] the target is Human leucocyte collagenase (MMP-8) (Homo sapiens, UniProt P22894). As to the kind of experiment: Inhibition of purified human leucocyte collagenase in vitro. In kind it is biochemical. Here is the method:
as §1

Experiment [3] addresses Human gelatinase B (MMP-9) (Homo sapiens, UniProt P14780). As to the kind of experiment: Inhibition of purified human gelatinase B in vitro. In kind it is biochemical. How it is done: as §1
Experiment [4] concerns the target T2, Human fibroblast collagenase (MMP-1) (Homo sapiens, UniProt P03956).
T2 sequence (P03956 100-469): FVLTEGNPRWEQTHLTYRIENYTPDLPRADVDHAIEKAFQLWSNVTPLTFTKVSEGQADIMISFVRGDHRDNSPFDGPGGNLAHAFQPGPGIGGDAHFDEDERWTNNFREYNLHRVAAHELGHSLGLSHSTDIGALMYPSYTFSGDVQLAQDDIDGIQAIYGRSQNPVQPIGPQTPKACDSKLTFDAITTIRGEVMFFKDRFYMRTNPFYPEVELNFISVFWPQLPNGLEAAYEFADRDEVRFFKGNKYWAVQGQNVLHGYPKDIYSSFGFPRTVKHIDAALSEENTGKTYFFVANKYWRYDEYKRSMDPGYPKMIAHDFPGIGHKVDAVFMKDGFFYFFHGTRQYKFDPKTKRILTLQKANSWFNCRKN
Kind of experiment: Inhibition of purified human fibroblast collagenase in vitro. To be noted: read-out: Human fibroblast collagenase (MMP-1): % inhibition at concentration. The format is biochemical. Here is the method:
as §1

Sequence of Stromelysin-1 (MMP-3) (P08254 100-477): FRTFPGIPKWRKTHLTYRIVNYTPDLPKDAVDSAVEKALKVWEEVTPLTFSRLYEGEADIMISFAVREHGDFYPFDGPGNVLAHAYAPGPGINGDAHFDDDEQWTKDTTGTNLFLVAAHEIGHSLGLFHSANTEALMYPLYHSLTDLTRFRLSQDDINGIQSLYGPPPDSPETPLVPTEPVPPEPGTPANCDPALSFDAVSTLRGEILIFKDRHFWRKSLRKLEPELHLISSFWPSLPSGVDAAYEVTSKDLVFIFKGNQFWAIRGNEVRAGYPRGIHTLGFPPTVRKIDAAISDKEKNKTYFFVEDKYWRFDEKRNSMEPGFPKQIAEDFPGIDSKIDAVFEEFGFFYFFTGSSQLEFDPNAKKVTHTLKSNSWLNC
Sequence of Human leucocyte collagenase (MMP-8) (P22894 101-467): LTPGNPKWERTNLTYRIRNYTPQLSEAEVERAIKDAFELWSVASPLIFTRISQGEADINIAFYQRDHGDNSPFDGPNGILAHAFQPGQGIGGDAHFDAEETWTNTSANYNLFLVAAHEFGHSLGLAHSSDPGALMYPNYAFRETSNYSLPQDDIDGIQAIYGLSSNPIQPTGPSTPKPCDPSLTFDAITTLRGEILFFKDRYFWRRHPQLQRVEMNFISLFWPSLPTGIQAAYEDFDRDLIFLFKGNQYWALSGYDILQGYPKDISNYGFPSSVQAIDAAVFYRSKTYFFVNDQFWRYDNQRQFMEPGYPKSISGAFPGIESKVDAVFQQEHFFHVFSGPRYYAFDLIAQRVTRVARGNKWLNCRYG
Sequence of Human gelatinase B (MMP-9) (P14780 94-707): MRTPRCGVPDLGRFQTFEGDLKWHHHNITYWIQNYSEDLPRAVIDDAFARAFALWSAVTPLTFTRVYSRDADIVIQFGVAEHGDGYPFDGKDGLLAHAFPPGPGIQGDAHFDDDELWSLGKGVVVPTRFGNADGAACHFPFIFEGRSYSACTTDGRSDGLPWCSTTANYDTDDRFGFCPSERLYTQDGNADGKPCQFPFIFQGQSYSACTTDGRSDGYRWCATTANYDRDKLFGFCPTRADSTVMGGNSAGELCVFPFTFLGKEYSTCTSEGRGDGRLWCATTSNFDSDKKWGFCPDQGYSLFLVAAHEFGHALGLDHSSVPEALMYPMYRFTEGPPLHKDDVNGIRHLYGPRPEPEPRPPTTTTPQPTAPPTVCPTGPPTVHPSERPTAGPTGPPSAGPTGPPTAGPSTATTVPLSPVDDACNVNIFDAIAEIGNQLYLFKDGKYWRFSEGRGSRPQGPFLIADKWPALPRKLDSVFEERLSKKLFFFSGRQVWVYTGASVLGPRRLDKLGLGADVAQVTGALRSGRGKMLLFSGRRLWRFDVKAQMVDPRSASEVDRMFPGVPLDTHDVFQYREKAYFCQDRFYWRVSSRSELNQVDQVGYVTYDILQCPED

Turning to `O=C(c1ccc(O)c(O)c1)c1cc(-c2ccccc2)[nH]n1` [Example 6, (3,4-dihydroxy-phenyl)(5-phenyl-1H-pyrazol-3-yl)-methanone], the “Chondrocytes: Mineralisation in the presence of LPS; action (percentage increase in mineralisation in comparison with the LPS-treated culture)” value in experiment [1] is reported as “+17%”.

Regarding `Oc1ccc(C=Cc2ccc3ccccc3c2)cc1O` [Example 5, 4-(2-naphth-2-yl-vinyl)-1,2-benzene diol], the inhibition at 100 µM came to 22% on Stromelysin-1 (MMP-3) (100 μM, read-out: Stromelysin-1 (MMP-3) % inhibition at concentration) and 40% in experiment [4]. Further, the IC50 came to 0.125 µM against Human elastase, 100 µM in experiment [2] and 32 µM in experiment [3]. In addition, the “Chondrocytes: Mineralisation in the presence of LPS; action (percentage increase in mineralisation in comparison with the LPS-treated culture)” value in experiment [1] is given as “+81%”.

Regarding `OCC#CCCCCCCC#Cc1ccc(O)c(O)c1` [Example 4, 4-(11-hydroxy-undeca-1,9-diynyl)-1,2-benzene diol], on Human elastase, half-maximal inhibition (IC50) required 55 µM. The “Chondrocytes: Mineralisation in the presence of LPS; action (percentage increase in mineralisation in comparison with the LPS-treated culture)” value in experiment [1] was “+12%”.

In the case of `COC(=O)C1=Cc2cc(O)c(O)c(O)c2CC1` [Example 1, 5,6,7-trihydroxy-3,4-dihydronaphthalene-2-carboxylic acid methyl ester], the IC50 against Stromelysin-1 (MMP-3) stood at 850 µM; against Human elastase, 5.5 µM; in experiment [2], 60 µM; in experiment [3], 72 µM. Besides, in experiment [1], the “Chondrocytes: Mineralisation in the presence of LPS; action (percentage increase in mineralisation in comparison with the LPS-treated culture)” value is “+42%”.

On to `CCCCCCCCCOc1ccc(O)c(O)c1` [Example 3, 4-nonyloxy-1,2-benzene diol], for which the IC50 against Stromelysin-1 (MMP-3) turned out to be 320 µM; at Human elastase, 1.6 µM. Moreover, in experiment [2] (100 μM, read-out: Human leucocyte collagenase (MMP-8): % inhibition at concentration), the inhibition at 100 µM was 40%. Further, in experiment [1], the “Chondrocytes: Mineralisation in the presence of LPS; action (percentage increase in mineralisation in comparison with the LPS-treated culture)” value was “+43%”.

As to `CCCCCC#Cc1ccc(O)c(O)c1C=CC(=O)OC` [Example 2, 3-(6-hept-1-ynyl-2,3-dihydroxy-phenyl)-acrylic acid methyl ester], the IC50 against Human elastase came out at 2 µM; in experiment [2], 173 µM. Further, in experiment [1], the “Chondrocytes: Mineralisation in the presence of LPS; action (percentage increase in mineralisation in comparison with the LPS-treated culture)” value is given as “+38%”.

The IC50 is the concentration at which inhibition is half-maximal. The low end stands for greater potency, the high end for weaker potency.

For the origin of these results see patent US6509368B1, “Use of catechol derivatives as proteinase inhibitors” (Gruenenthal GmbH, priority 1998, dated 2003).
